53 sequences from the supplement of paper PMC11208160 can be followed below.

Data set [1] in a line: recombinant barcode read abundance after kanamycin selection (control-corrected) (log10(CPM+1)); higher = more efficient recombination; sequences stand for … in AGTGCAGAGAAAATCGGCCAGTTTTCTCTGCCTGCAGTCCGCATGCCGT…ATTTATGCAGCGGACTGCCTTTCTCCCAAAGTGATAAACCGGACAGTATCATGGACCGGTTTTCCCGGTAATCCGTATTTGCAAGGTTGGTTTCACT; site = the 11-nt target. The protocol: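 Same pooled E. coli target screen (IS621 bridge recombinase, kanamycin selection, control-corrected CPM, mean of 2 biological replicates). Here the two core-binding nucleotides of the LTG and RTG of the bridge RNA target-binding loop are mutated. Target and donor CT cores are held constant, and the other 9 guide positions match the target. The target is read from the library oligo sequence. Molecule = full bridge RNA written as DNA: nt 1-80 from the library oligo, rest WT scaffold.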

The nature of data set [2]: recombinant barcode read abundance after kanamycin selection (control-corrected) (log10(CPM+1)); higher = more efficient recombination; sequences stand for … in AGTGCAGAGAAAATCGGCCAGTTTTCTCTGCCTGCAGTCCGCATGCCGT…AGATTTATGCAGCGGACTGCCTTTCTCCCAAAGTGATAAACCGGACAGTATCATGGACCGGTTTTCCCGGTAATCCGTATTTGCAAGGTTGGTTTCACT; site = the 11-nt target. A digest of the protocol:
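This pooled E. coli screen matched targets with IS621 bridge RNA target-binding loops. Plating was done in duplicate on chloramphenicol/ampicillin LB agar as a control and on chloramphenicol/ampicillin/kanamycin plus 0.1 mM IPTG. Recombination efficiency reflects barcode counts at recombinant junctions as counts per million, averaged and control-corrected. The figures are log10(CPM+1).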

Take “AAACACAACTGGGTTCTAACCTGTTGCCTGT [AAACACACTAG_LTGcore_AC_RTGcore_AC] (site AAACACACTAG) (LTG core: AC, RTG core: AC)”: in data set [1], the “recombinant barcode read abundance (log10)” value came out at 0.0446.
“AAACACAATTGGGTTCTAACCTGTTGCCTAT [AAACACACTAG_LTGcore_AT_RTGcore_AT] (site AAACACACTAG) (LTG core: AT, RTG core: AT)”: the “recombinant barcode read abundance (log10)” value in data set [1] stood at 0.209.
Same read-out and setting: then “AAACACACTTGGGTTCTAACCTGTTGCCTCT [AAACACACTAG_LTGcore_CT_RTGcore_AG] (site AAACACACTAG) (LTG core: CT, RTG core: AG)”, with 2.46.
Turning to “AAACACACTTGGGTTCTAACCTGTTGCCTGA [AAACACACTAG_LTGcore_CT_RTGcore_TC] (site AAACACACTAG) (LTG core: CT, RTG core: TC)”, the “recombinant barcode read abundance (log10)” value in data set [1] turned out to be 1.19.
On the same count and under the same terms, then “AAACACACTTGGGTTCTAACCTGTTGCCTTC [AAACACACTAG_LTGcore_CT_RTGcore_GA] (site AAACACACTAG) (LTG core: CT, RTG core: GA)”, with 0.477; and “AAACACACTTGGGTTCTAACCTGTTGCCTTG [AAACACACTAG_LTGcore_CT_RTGcore_CA] (site AAACACACTAG) (LTG core: CT, RTG core: CA)”, with 0.248; and “AAACACAGATGGGTTCTAACCTGTTGCCTTC [AAACACACTAG_LTGcore_GA_RTGcore_GA] (site AAACACACTAG) (LTG core: GA, RTG core: GA)”, with 0.152.
Same read-out and setting: as for “AAACACAGCTGGGTTCTAACCTGTTGCCTAG [AAACACACTAG_LTGcore_GC_RTGcore_CT] (site AAACACACTAG) (LTG core: GC, RTG core: CT)”, the figure is 0.0255.
Regarding “AAACACAGGTGGGTTCTAACCTGTTGCCTAG [AAACACACTAG_LTGcore_GG_RTGcore_CT] (site AAACACACTAG) (LTG core: GG, RTG core: CT)”, in data set [1], the “recombinant barcode read abundance (log10)” value is 0.463.
With “AAACACAGGTGGGTTCTAACCTGTTGCCTCC [AAACACACTAG_LTGcore_GG_RTGcore_GG] (site AAACACACTAG) (LTG core: GG, RTG core: GG)”, the “recombinant barcode read abundance (log10)” value in data set [1] amounted to 0.0137.
In the case of “AAACACATGTGGGTTCTAACCTGTTGCCTAG [AAACACACTAG_LTGcore_TG_RTGcore_CT] (site AAACACACTAG) (LTG core: TG, RTG core: CT)”, the “recombinant barcode read abundance (log10)” value in data set [1] was found to be 0.247.
In the case of “AAACACATTTGGGTTCTAACCTGTTGCCTAA [AAACACACTAG_LTGcore_TT_RTGcore_TT] (site AAACACACTAG) (LTG core: TT, RTG core: TT)”, the “recombinant barcode read abundance (log10)” value in data set [1] was found to be 0.889.
On the same count and under the same terms, as for “AAACAGTAATGGGTTCTAACCTGTTGCCTTT [AAACAGTCTAG_LTGcore_AA_RTGcore_AA] (site AAACAGTCTAG) (LTG core: AA, RTG core: AA)”, the figure is 0.199; as for “AAACAGTCCTGGGTTCTAACCTGTTGCCTGG [AAACAGTCTAG_LTGcore_CC_RTGcore_CC] (site AAACAGTCTAG) (LTG core: CC, RTG core: CC)”, 0.0864; as for “AAACAGTCTTGGGTTCTAACCTGTTGCCTAC [AAACAGTCTAG_LTGcore_CT_RTGcore_GT] (site AAACAGTCTAG) (LTG core: CT, RTG core: GT)”, 0.553.
As for “AAACAGTCTTGGGTTCTAACCTGTTGCCTCG [AAACAGTCTAG_LTGcore_CT_RTGcore_CG] (site AAACAGTCTAG) (LTG core: CT, RTG core: CG)”, the “recombinant barcode read abundance (log10)” value in data set [1] came to 1.3.
On to “AAACAGTCTTGGGTTCTAACCTGTTGCCTGT [AAACAGTCTAG_LTGcore_CT_RTGcore_AC] (site AAACAGTCTAG) (LTG core: CT, RTG core: AC)”, for which the “recombinant barcode read abundance (log10)” value in data set [1] worked out at 1.66.
Consider “AAACAGTCTTGGGTTCTAACCTGTTGCCTTT [AAACAGTCTAG_LTGcore_CT_RTGcore_AA] (site AAACAGTCTAG) (LTG core: CT, RTG core: AA)”, for which, in data set [1], the “recombinant barcode read abundance (log10)” value was 1.32.
Same read-out and setting: then “AAACAGTGCTGGGTTCTAACCTGTTGCCTGC [AAACAGTCTAG_LTGcore_GC_RTGcore_GC] (site AAACAGTCTAG) (LTG core: GC, RTG core: GC)”, with 0.0997.
On the same count and under the same terms, as for “AAACAGTGGTGGGTTCTAACCTGTTGCCTCC [AAACAGTCTAG_LTGcore_GG_RTGcore_GG] (site AAACAGTCTAG) (LTG core: GG, RTG core: GG)”, the figure is 0.0531; as for “AAACAGTGTTGGGTTCTAACCTGTTGCCTAC [AAACAGTCTAG_LTGcore_GT_RTGcore_GT] (site AAACAGTCTAG) (LTG core: GT, RTG core: GT)”, 0.0266.
In the case of “AAACAGTGTTGGGTTCTAACCTGTTGCCTAG [AAACAGTCTAG_LTGcore_GT_RTGcore_CT] (site AAACAGTCTAG) (LTG core: GT, RTG core: CT)”, the “recombinant barcode read abundance (log10)” value in data set [1] was determined as 0.0452.
With “AAACAGTTGTGGGTTCTAACCTGTTGCCTAG [AAACAGTCTAG_LTGcore_TG_RTGcore_CT] (site AAACAGTCTAG) (LTG core: TG, RTG core: CT)”, in data set [1], the “recombinant barcode read abundance (log10)” value came out at 0.029.
As to “TTGGAAGCTTGGGTTCTAACCTGTTGCCT (site TTGGAAGCTAG)”, in data set [2], the “recombinant barcode read abundance (log10)” value amounted to 2.1.
The same measure, in the same setting: as for “TTGGAAGCTTGGGTTCTAACCTGTTGCCT (site TTGGCAGCTAG)”, the figure is 0.0513; as for “TTGGAAGCTTGGGTTCTAACCTGTTGCCT (site TTGGGAGCTAG)”, 0.541.
Consider “TTGGAAGCTTGGGTTCTAACCTGTTGCCT (site TTGGTAGCTAG)”, for which the “recombinant barcode read abundance (log10)” value in data set [2] worked out at 2.19.
Still for that read-out and setting: as for “TTGGAGGCTTGGGTTCTAACCTGTTGCCT (site AGCAGTACTTA)”, the figure is 0.0388.
Turning to “TTGGAGGCTTGGGTTCTAACCTGTTGCCT (site TTGGAGGCTAG)”, in data set [2], the “recombinant barcode read abundance (log10)” value came to 1.45.
“TTGGATCCTTGGGTTCTAACCTGTTGCCT (site TTGGATCCTAA)”: the “recombinant barcode read abundance (log10)” value in data set [2] was 0.382.
For “TTGGATCCTTGGGTTCTAACCTGTTGCCT (site TTGGATCCTAG)”, the “recombinant barcode read abundance (log10)” value in data set [2] came out at 2.31.
In the case of “TTGGCGCCTTGGGTTCTAACCTGTTGCCT (site TCGGCTCCTAG)”, the “recombinant barcode read abundance (log10)” value in data set [2] amounted to 0.0935.
Still for that read-out and setting: then “TTGGCGCCTTGGGTTCTAACCTGTTGCCT (site TTGGCGCCTAG)”, with 0.529; and “TTGGGAGCTTGGGTTCTAACCTGTTGCCT (site TTGGAAGCTAG)”, with 0.984; and “TTGGGAGCTTGGGTTCTAACCTGTTGCCT (site TTGGCAGCTAG)”, with 0.11.
Same read-out and setting: then “TTGGGAGCTTGGGTTCTAACCTGTTGCCT (site TTGGGAGCTAG)”, with 2.26; and “TTGGGAGCTTGGGTTCTAACCTGTTGCCT (site TTGGTAGCTAG)”, with 0.442.
Consider “TTGGGCGCTTGGGTTCTAACCTGTTGCCT (site TTGGACGCTAG)”, for which the “recombinant barcode read abundance (log10)” value in data set [2] worked out at 0.0866.
For the sequence “TTGGGCGCTTGGGTTCTAACCTGTTGCCT (site TTGGCCGCTAG)”, in data set [2], the “recombinant barcode read abundance (log10)” value was found to be 0.154.
With “TTGGGCGCTTGGGTTCTAACCTGTTGCCT (site TTGGGCGCTAG)”, the “recombinant barcode read abundance (log10)” value in data set [2] worked out at 0.643.
Turning to “TTGGGCGCTTGGGTTCTAACCTGTTGCCT (site TTGGTCGCTAG)”, the “recombinant barcode read abundance (log10)” value in data set [2] worked out at 0.0335.
In the case of “TTGGTCACTTGGGTTCTAACCTGTTGCCT (site TTGGACACTAG)”, in data set [2], the “recombinant barcode read abundance (log10)” value stood at 0.358.
For “TTGGTCACTTGGGTTCTAACCTGTTGCCT (site TTGGCCACTAG)”, the “recombinant barcode read abundance (log10)” value in data set [2] was 0.309.
Still for that read-out and setting: then “TTGGTCACTTGGGTTCTAACCTGTTGCCT (site TTGGGCACTAG)”, with 0.205; and “TTGGTCACTTGGGTTCTAACCTGTTGCCT (site TTGGTCACTAG)”, with 2.1; and “TTGGTCGCTTGGGTTCTAACCTGTTGCCT (site TTGGACGCTAG)”, with 0.0736.
Same read-out and setting: then “TTGGTCGCTTGGGTTCTAACCTGTTGCCT (site TTGGCCGCTAG)”, with 1.4; and “TTGGTCGCTTGGGTTCTAACCTGTTGCCT (site TTGGGCGCTAG)”, with 0.085.
For “TTGGTCGCTTGGGTTCTAACCTGTTGCCT (site TTGGTCGCTAG)”, in data set [2], the “recombinant barcode read abundance (log10)” value came out at 1.71.
In the case of “TTGTAGACTTGGGTTCTAACCTGTTGCCT (site TTGATGACTAG)”, in data set [2], the “recombinant barcode read abundance (log10)” value came out at 0.484.
For “TTGTAGACTTGGGTTCTAACCTGTTGCCT (site TTGTAGACTAG)”, the “recombinant barcode read abundance (log10)” value in data set [2] came out at 1.22.
Still for that read-out and setting: as for “TTGTGTTCTTGGGTTCTAACCTGTTGCTA (site GTGTGTTCTTG)”, the figure is 0.0284.
As for “TTGTGTTCTTGGGTTCTAACCTGTTGCTA (site TTGTGTTCTTA)”, the “recombinant barcode read abundance (log10)” value in data set [2] came out at 0.465.
